In patent US11060153B2, “Fluorescence amplification method for forward genetic discovery of factors in human mRNA degradation” (Yale University, priority 2016, dated 2021):

System: human NMD
Test: FACS analysis of green fluorescence of the PTC(+) GFP reporter in the "red" Fireworks cell line after NMD inhibition
Format: cell-based
Conditions: FIG. 7B
Description: Sixteen of the most abundant individual sgRNAs (Table 1), whose enrichment scores in the 2nd round exceeded 10.0, were individually cloned into linearized Lt-CRISPR vector and lentivirally transduced into the “green” Fireworks cell line. Resulting cells were propagated for 11 days (or 21 days for AVEN sgRNA) and FACS-analyzed to observe an increase in […] fluorescence of the PTC(+) Fireworks reporter. Indeed, the vast majority of sgRNAs reproduced the shift when tested individually. RPS8 and AVEN were targeted with shRNAs (sh22: 5′[…] GTTTTTTG3′ (SEQ ID NO: 8) and sh01: 5′[…] CTTTTTTG3′ (SEQ ID NO: 9) for RPS8 and AVEN, respectively) cloned into the pLKO.1 vector (Moffat et al., Cell 2006, 124:1283-1298) that was used to transduce “green” and “red” Fireworks cells followed by FACS-analysis to observe effects of mRNA knockdown on fluorescence of the PTC(+) reporters.
The Fireworks approach provides the ability to perform forward genetic screens for human NMD factors at the speed of a FACS sorter. As designed, orthogonal Fireworks cell lines respond as expected to the introduction of a stop codon (PTC39) (Zhang et al., RNA 1998, 4:801-815) into the β-globin sequence by a 7- to 9-fold reduction in the reporter's fluorescence (FIGS. 1C, 1D and 2C). PTC39, which is upstream of the last intron in the β-globin pre-mRNA, induces NMD of the Fireworks reporter mRNA. […]

CCGGCCGTGCCCTGAGGTTGGACGTCTCGAGACGTCCAACCTCAGGGCACG GTTTTTTG (guide CCGGCCGTGCCCTGAGGTTGGACGTCTCGAGACGTCCAACCTCAGGGCACGGTTTTTTG; expressed or natural sequence) [RPS8-targeting shRNA, shRNA targeting RPS8 cloned into the pLKO.1 vector]
green fluorescence of the "red" Fireworks cell line after shRNA transduction: increase in green fluorescence
